Test results as given in PubChem BioAssay AID248 (DTP/NCI, 2004).
Where “and” joins values, the source holds several entries; their conditions need not be identical. Identical values can stand only once. Inconclusive results and toxic doses are left out. Cut-off read from the data, not from the text of the source: active = T/C of 150% or more; inactive = T/C below 125%.

System: L1210 leukemia ip in BDF1 mice, survival T/C
Experiment: NCI In Vivo Anticancer Drug Screen. Data for tumor model L1210 Leukemia (intraperitoneal) in B6D2F1 (BDF1) mice
Conditions: endpoint: mean survival time, higher = longer survival
Outline: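 Value reflects the ratio of survival in compound-treated mice to survival in vehicle-treated controls, with both groups carrying the same transplanted tumor.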

[1] = dose: 100.0 mg/kg/injection, schedule: Q01DX001 (ip), vehicle: Klucel (hydroxypropylcellulose) (HPC)
[2] = dose: 200.0 mg/kg/injection, schedule: Q01DX001 (ip), vehicle: Klucel (hydroxypropylcellulose) (HPC)
[3] = dose: 400.0 mg/kg/injection, schedule: Q01DX001 (ip), vehicle: Klucel (hydroxypropylcellulose) (HPC)
[4] = dose: 100.0 mg/kg/injection, schedule: Q04DX003 (ip), vehicle: saline
[5] = dose: 200.0 mg/kg/injection, schedule: Q04DX003 (ip), vehicle: saline
[6] = dose: 400.0 mg/kg/injection, schedule: Q04DX003 (ip), vehicle: saline
[7] = dose: 25.0 mg/kg/injection, schedule: Q04DX003 (ip), vehicle: Klucel (hydroxypropylcellulose) (HPC)
[8] = dose: 50.0 mg/kg/injection, schedule: Q04DX003 (ip), vehicle: Klucel (hydroxypropylcellulose) (HPC)
[9] = dose: 100.0 mg/kg/injection, schedule: Q04DX003 (ip), vehicle: Klucel (hydroxypropylcellulose) (HPC)
[10] = dose: 100.0 mg/kg/injection, schedule: Q01DX009 (ip), vehicle: Klucel (hydroxypropylcellulose) (HPC)
[11] = dose: 200.0 mg/kg/injection, schedule: Q04DX003 (ip), vehicle: Klucel (hydroxypropylcellulose) (HPC)
[12] = dose: 100.0 mg/kg/injection, schedule: Q01DX001 (ip), vehicle: saline
[13] = dose: 200.0 mg/kg/injection, schedule: Q01DX001 (ip), vehicle: saline
[14] = dose: 400.0 mg/kg/injection, schedule: Q01DX001 (ip), vehicle: saline
[15] = dose: 6.25 mg/kg/injection, schedule: Q01DX009 (ip), vehicle: saline

Measured: T/C

c1ccc2c(c1)ccc1ccc(C3=NCCO3)cc12
inactive: [1] 94 % of control | [2] 100 % of control | [3] 100 % of control

O=C(OCCBr)c1ccccc1[N+](=O)[O-]
inactive: [4] 105 % of control | [5] 97 % of control | [6] 100 % of control

Ic1ccc(NC2=NCCN2)c2ccccc12
inactive: [7] 111 % of control | [8] 100 % of control | [9] 93 % of control and 91 % of control

CC(=O)C(Cc1ccc(CC(C(C)=O)C(C)=O)cc1)C(C)=O
inactive: dose: 100.0 mg/kg/injection, schedule: Q04DX003 (ip), vehicle: saline with Tween-80 100 % of control | dose: 200.0 mg/kg/injection, schedule: Q04DX003 (ip), vehicle: saline with Tween-80 91 % of control | dose: 400.0 mg/kg/injection, schedule: Q04DX003 (ip), vehicle: saline with Tween-80 100 % of control

CC/C(C)=C\CC/C(C)=C\COc1ccccc1C
inactive: dose: 100.0 mg/kg/injection, schedule: Q04DX002 (ip), vehicle: saline with Tween-80 91 % of control | dose: 200.0 mg/kg/injection, schedule: Q04DX002 (ip), vehicle: saline with Tween-80 94 % of control | dose: 400.0 mg/kg/injection, schedule: Q04DX002 (ip), vehicle: saline with Tween-80 89 % of control

CCc1cnccc1C
inactive: dose: 20.0 mg/kg/injection, schedule: Q04DX003 (ip), vehicle: Klucel (hydroxypropylcellulose) (HPC) 108 % of control | dose: 25.0 mg/kg/injection, schedule: Q01DX009 (ip), vehicle: Klucel (hydroxypropylcellulose) (HPC) 102 % of control | dose: 40.0 mg/kg/injection, schedule: Q04DX003 (ip), vehicle: Klucel (hydroxypropylcellulose) (HPC) 102 % of control | dose: 50.0 mg/kg/injection, schedule: Q01DX009 (ip), vehicle: Klucel (hydroxypropylcellulose) (HPC) 107 % of control | dose: 80.0 mg/kg/injection, schedule: Q04DX003 (ip), vehicle: Klucel (hydroxypropylcellulose) (HPC) 108 % of control | [10] 111 % of control | [9] 104 % of control

CCOC(=O)CCN1CCCCC1
inactive: dose: 100.0 mg/kg/injection, schedule: Q01DX009 (ip), vehicle: saline 101 % of control | [4] 93 % of control | dose: 200.0 mg/kg/injection, schedule: Q01DX009 (ip), vehicle: saline 98 % of control | [5] 97 % of control | dose: 400.0 mg/kg/injection, schedule: Q01DX009 (ip), vehicle: saline 104 % of control | [6] 103 % of control

CC1(C)N=C(N)N=C(N)N1c1cccc(OCCCOc2cccc(NC(=O)CBr)c2)c1
inactive: dose: 5.0 mg/kg/injection, schedule: Q01DX001 (ip), vehicle: saline 95 % of control | dose: 10.0 mg/kg/injection, schedule: Q01DX001 (ip), vehicle: saline 94 % of control | dose: 20.0 mg/kg/injection, schedule: Q01DX001 (ip), vehicle: saline 101 % of control | dose: 40.0 mg/kg/injection, schedule: Q01DX001 (ip), vehicle: saline 103 % of control

C[SiH]1c2ccccc2CCc2ccccc21
inactive: [10] 102 % of control | [9] 104 % of control | dose: 200.0 mg/kg/injection, schedule: Q01DX009 (ip), vehicle: Klucel (hydroxypropylcellulose) (HPC) 104 % of control | [11] 105 % of control | dose: 400.0 mg/kg/injection, schedule: Q01DX009 (ip), vehicle: Klucel (hydroxypropylcellulose) (HPC) 106 % of control | dose: 400.0 mg/kg/injection, schedule: Q04DX003 (ip), vehicle: Klucel (hydroxypropylcellulose) (HPC) 107 % of control

NC(C(=O)O)c1ccc(F)cc1 (configuration not stated)
inactive: dose: 50.0 mg/kg/injection, schedule: Q01DX001 (ip), vehicle: saline 104 % of control | [12] 104 % of control | [13] 101 % of control

c1ccc(N=N/C(=N/Nc2ccccc2)c2ccccc2)cc1
inactive: dose: 50.0 mg/kg/injection, schedule: Q01DX009 (ip), vehicle: saline with Tween-80 90 % of control | dose: 100.0 mg/kg/injection, schedule: Q01DX009 (ip), vehicle: saline with Tween-80 96 % of control

CCOC(=O)C(CCCCC(C(=O)OCC)C(=O)OCC)C(=O)OCC
inactive: [12] 103 % of control | [13] 109 % of control | [14] 105 % of control

CC(C)(C)OC(=O)NNC(=O)c1ccc([N+](=O)[O-])cc1
inactive: dose: 4.12 mg/kg/injection, schedule: Q01DX009 (ip), vehicle: Klucel (hydroxypropylcellulose) (HPC) 118 % of control | dose: 4.12 mg/kg/injection, schedule: Q01DX009 (ip), vehicle: saline 92 % of control | dose: 6.25 mg/kg/injection, schedule: Q01DX009 (ip), vehicle: Klucel (hydroxypropylcellulose) (HPC) 124 % of control | [15] 96 % of control | dose: 9.37 mg/kg/injection, schedule: Q01DX009 (ip), vehicle: Klucel (hydroxypropylcellulose) (HPC) 100 % of control | dose: 9.37 mg/kg/injection, schedule: Q01DX009 (ip), vehicle: saline 94 % of control | dose: 35.0 mg/kg/injection, schedule: Q01DX009 (ip), vehicle: saline 121 % of control | [8] 96 % of control | dose: 55.0 mg/kg/injection, schedule: Q01DX009 (ip), vehicle: saline 102 % of control | dose: 80.0 mg/kg/injection, schedule: Q01DX009 (ip), vehicle: saline 105 % of control | dose: 100.0 mg/kg/injection, schedule: Q01DX001 (ip), vehicle: other 102 % of control | [9] 93 % of control | dose: 120.0 mg/kg/injection, schedule: Q01DX009 (ip), vehicle: Klucel (hydroxypropylcellulose) (HPC) 92 % of control | dose: 180.0 mg/kg/injection, schedule: Q01DX009 (ip), vehicle: Klucel (hydroxypropylcellulose) (HPC) 97 % of control | dose: 200.0 mg/kg/injection, schedule: Q01DX001 (ip), vehicle: other 95 % of control | [11] 91 % of control

CCOC(=O)C1CSCN1 (configuration not stated)
inactive: [4] 104 % of control | [5] 89 % of control

CC/C(=N/OC(=O)N(C)C)c1ccccc1
inactive: [12] 96 % of control | [13] 100 % of control | [14] 104 % of control

CCNC(=O)NC(C(=O)OCC)C(=O)OCC
inactive: [1] 107 % of control | [2] 98 % of control | [3] 90 % of control

NC(=O)COc1ccccc1Cl
inactive: [8] 102 % of control | [9] 94 % of control | [11] 93 % of control

C=CC=O
inactive: dose: 3.0 mg/kg/injection, schedule: Q01DX009 (ip), vehicle: saline 96 % of control | dose: 3.12 mg/kg/injection, schedule: Q01DX009 (ip), vehicle: saline 98 % of control | dose: 3.12 mg/kg/injection, schedule: Q04DX003 (ip), vehicle: saline 91 % of control | dose: 6.0 mg/kg/injection, schedule: Q01DX009 (ip), vehicle: saline 102 % of control | [15] 90 % of control | dose: 6.25 mg/kg/injection, schedule: Q04DX003 (ip), vehicle: saline 97 % of control | dose: 7.5 mg/kg/injection, schedule: Q04DX003 (ip), vehicle: saline 88 % of control | dose: 12.0 mg/kg/injection, schedule: Q01DX009 (ip), vehicle: saline 102 % of control | dose: 12.0 mg/kg/injection, schedule: Q04DX003 (ip), vehicle: Klucel (hydroxypropylcellulose) (HPC) 98 % of control | dose: 12.5 mg/kg/injection, schedule: Q04DX003 (ip), vehicle: saline 89 % of control | [7] 101 % of control | [12] 117 % of control | [13] 109 % of control | [14] 98 % of control
